From the NIST ThermoML archive (doi:10.1016/j.jct.2012.08.004)
Values joined by “and” are separate entries in the source; they are usually repeats but may differ in a detail not shown here. Identical values can stand only once. ± gives the expanded uncertainty stated by the source.

Details: Crystal, Calculated from knudsen effusion weight loss

Q: With O=c1cc[nH]c(=S)[nH]1 [2-thiouracil] as the compound, how does the “vapor or sublimation pressure” value (421.15 K) read?
A: Its value is 0.0001325 ± 1.4e-05 kPa and 0.000123 ± 1.3e-05 kPa and 0.0001236 ± 1.3e-05 kPa.

Q: And the “vapor or sublimation pressure” value (423.21 K)?
A: The value was 0.0001553 ± 1.7e-05 kPa and 0.0001548 ± 1.6e-05 kPa and 0.0001474 ± 1.6e-05 kPa.

Q: What about the “vapor or sublimation pressure” value (425.22 K) of the same compound?
A: Its value is 0.0001891 ± 2e-05 kPa and 0.000178 ± 1.9e-05 kPa and 0.0001835 ± 1.9e-05 kPa.

Q: What about the “vapor or sublimation pressure” value (427.15 K) of the same compound?
A: The value was 0.0002128 ± 2.3e-05 kPa and 0.0002092 ± 2.2e-05 kPa and 0.0002223 ± 2.4e-05 kPa.

Q: What about the “vapor or sublimation pressure” value (429.2 K) of the same compound?
A: The value was 0.0002611 ± 2.8e-05 kPa and 0.0002488 ± 2.6e-05 kPa and 0.0002569 ± 2.7e-05 kPa.

Q: What about the “vapor or sublimation pressure” value (431.23 K) of the same compound?
A: Its value is 0.0003061 ± 3.2e-05 kPa and 0.0002978 ± 3.2e-05 kPa and 0.0003042 ± 3.2e-05 kPa.

Q: And the “vapor or sublimation pressure” value (433.16 K)?
A: Its value is 0.0003652 ± 3.9e-05 kPa and 0.0003584 ± 3.8e-05 kPa and 0.0003803 ± 4e-05 kPa.

Q: What about the “vapor or sublimation pressure” value (435.2 K) of the same compound?
A: The value was 0.0004422 ± 4.7e-05 kPa and 0.0004176 ± 4.4e-05 kPa and 0.0004406 ± 4.7e-05 kPa.

Q: What about the “vapor or sublimation pressure” value (437.24 K) of the same compound?
A: The value was 0.0005206 ± 5.5e-05 kPa and 0.0005016 ± 5.3e-05 kPa and 0.0005328 ± 5.6e-05 kPa.

Q: And the “vapor or sublimation pressure” value (439.16 K)?
A: Its value is 0.0005912 ± 6.3e-05 kPa and 0.0005684 ± 6e-05 kPa and 0.0006221 ± 6.6e-05 kPa.

Q: What about the “vapor or sublimation pressure” value (441.22 K) of the same compound?
A: The value was 0.000693 ± 7.3e-05 kPa and 0.000706 ± 7.5e-05 kPa and 0.0006718 ± 7.1e-05 kPa.

Q: What about the “vapor or sublimation pressure” value (443.26 K) of the same compound?
A: Its value is 0.000834 ± 8.8e-05 kPa and 0.0008404 ± 8.9e-05 kPa and 0.0008041 ± 8.5e-05 kPa.

Q: With Cc1c[nH]c(=S)[nH]c1=O [5-methyl-2-thiouracil] as the compound, how does the “vapor or sublimation pressure” value (413.15 K) read?
A: The value was 0.0001771 ± 1.9e-05 kPa and 0.0001698 ± 1.8e-05 kPa.

Q: And the “vapor or sublimation pressure” value (415.25 K)?
A: The value was 0.0002113 ± 2.2e-05 kPa and 0.000217 ± 2.3e-05 kPa and 0.0002102 ± 2.2e-05 kPa.

Q: What about the “vapor or sublimation pressure” value (417.15 K) of the same compound?
A: Its value is 0.0002538 ± 2.7e-05 kPa and 0.0002498 ± 2.7e-05 kPa.

Q: And the “vapor or sublimation pressure” value (417.24 K)?
A: Its value is 0.0002506 ± 2.7e-05 kPa.

Q: What about the “vapor or sublimation pressure” value (419.23 K) of the same compound?
A: Its value is 0.0003129 ± 3.3e-05 kPa and 0.0003018 ± 3.2e-05 kPa and 0.0003131 ± 3.3e-05 kPa.

Q: What about the “vapor or sublimation pressure” value (421.24 K) of the same compound?
A: Its value is 0.0003606 ± 3.8e-05 kPa and 0.0003744 ± 4e-05 kPa.

Q: What about the “vapor or sublimation pressure” value (423.16 K) of the same compound?
A: The value was 0.0004363 ± 4.6e-05 kPa and 0.0004213 ± 4.5e-05 kPa and 0.0004419 ± 4.7e-05 kPa.

Q: And the “vapor or sublimation pressure” value (425.2 K)?
A: The value was 0.0005302 ± 5.6e-05 kPa and 0.000505 ± 5.4e-05 kPa and 0.0005103 ± 5.4e-05 kPa.

Q: What about the “vapor or sublimation pressure” value (427.22 K) of the same compound?
A: The value was 0.0006121 ± 6.5e-05 kPa and 0.000601 ± 6.4e-05 kPa and 0.0006259 ± 6.6e-05 kPa.

Q: And the “vapor or sublimation pressure” value (429.15 K)?
A: The value was 0.0007317 ± 7.8e-05 kPa and 0.0007071 ± 7.5e-05 kPa and 0.0007522 ± 8e-05 kPa.

Q: What about the “vapor or sublimation pressure” value (431.22 K) of the same compound?
A: Its value is 0.0008692 ± 9.2e-05 kPa and 0.0008414 ± 8.9e-05 kPa and 0.000852 ± 9e-05 kPa.

Q: What about the “vapor or sublimation pressure” value (433.24 K) of the same compound?
A: The value was 0.001032 ± 0.00013 kPa and 0.001018 ± 0.00012 kPa and 0.001053 ± 0.00013 kPa.

Q: Which “vapor or sublimation pressure” value (421.16 K) does the source give for Cc1cc(=O)[nH]c(=S)[nH]1 [6-methyl-2-thiouracil] here?
A: Its value is 0.000106 ± 1.1e-05 kPa and 9.78e-05 ± 1e-05 kPa.

Q: And the “vapor or sublimation pressure” value (423.15 K)?
A: Its value is 0.0001239 ± 1.3e-05 kPa and 0.0001238 ± 1.3e-05 kPa and 0.0001199 ± 1.3e-05 kPa.

Q: And the “vapor or sublimation pressure” value (425.17 K)?
A: Its value is 0.000145 ± 1.5e-05 kPa and 0.000136 ± 1.4e-05 kPa and 0.0001411 ± 1.5e-05 kPa.

Q: What about the “vapor or sublimation pressure” value (427.16 K) of the same compound?
A: Its value is 0.0001623 ± 1.7e-05 kPa and 0.0001711 ± 1.8e-05 kPa and 0.0001818 ± 1.9e-05 kPa.

Q: What about the “vapor or sublimation pressure” value (429.17 K) of the same compound?
A: Its value is 0.0002135 ± 2.3e-05 kPa and 0.0002 ± 2.1e-05 kPa and 0.0002154 ± 2.3e-05 kPa.

Q: What about the “vapor or sublimation pressure” value (431.16 K) of the same compound?
A: The value was 0.0002301 ± 2.7e-05 kPa and 0.0002471 ± 2.6e-05 kPa.

Q: And the “vapor or sublimation pressure” value (431.19 K)?
A: The value was 0.0002525 ± 2.7e-05 kPa and 0.0002434 ± 2.6e-05 kPa and 0.0002473 ± 2.6e-05 kPa.

Q: And the “vapor or sublimation pressure” value (433.2 K)?
A: The value was 0.0002894 ± 3.1e-05 kPa and 0.0002713 ± 2.9e-05 kPa and 0.0002913 ± 3.1e-05 kPa.

Q: And the “vapor or sublimation pressure” value (435.22 K)?
A: Its value is 0.0003418 ± 3.6e-05 kPa and 0.0003333 ± 3.5e-05 kPa and 0.0003423 ± 3.6e-05 kPa.

Q: What about the “vapor or sublimation pressure” value (437.17 K) of the same compound?
A: The value was 0.0004046 ± 4.3e-05 kPa [middle of 5 runs].

Q: What about the “vapor or sublimation pressure” value (439.2 K) of the same compound?
A: The value was 0.0005278 ± 5.6e-05 kPa and 0.0004968 ± 5.3e-05 kPa and 0.0004799 ± 5.1e-05 kPa.

Q: What about the “vapor or sublimation pressure” value (439.22 K) of the same compound?
A: The value was 0.0004689 ± 5e-05 kPa and 0.000478 ± 5.1e-05 kPa and 0.0004523 ± 4.8e-05 kPa.

Q: And the “vapor or sublimation pressure” value (441.23 K)?
A: Its value is 0.0005644 ± 6e-05 kPa [middle of 5 runs].

Q: What about the “vapor or sublimation pressure” value (443.16 K) of the same compound?
A: The value was 0.0006925 ± 7.3e-05 kPa and 0.0006452 ± 6.8e-05 kPa.

Q: And the “vapor or sublimation pressure” value (443.17 K)?
A: Its value is 0.0006889 ± 7.3e-05 kPa and 0.0006567 ± 7e-05 kPa.

Q: And the “vapor or sublimation pressure” value (445.2 K)?
A: Its value is 0.0007983 ± 8.5e-05 kPa and 0.0007787 ± 8.3e-05 kPa.

Q: And the “vapor or sublimation pressure” value (445.21 K)?
A: Its value is 0.000813 ± 8.6e-05 kPa and 0.0008056 ± 8.6e-05 kPa and 0.0007574 ± 8e-05 kPa.

Q: And the “vapor or sublimation pressure” value (447.24 K)?
A: The value was 0.0009485 ± 0.0001 kPa [middle of 6 runs].
